Test results published in PubChem BioAssay AID248 (DTP/NCI, 2004).
“And” between values parts separate entries of the source, which are not always exact repeats. Identical values can stand only once. Toxic doses and inconclusive results are not listed.

Test system: L1210 leukemia ip in BDF1 mice, survival T/C
Experiment: NCI In Vivo Anticancer Drug Screen. Data for tumor model L1210 Leukemia (intraperitoneal) in B6D2F1 (BDF1) mice
Details: higher = longer survival
How it was run: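 Value reflects the ratio of survival in compound-treated mice to survival in vehicle-treated controls, with both groups carrying the same transplanted tumor.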

What does the source list for `COc1cc([C@@H]2c3cc4c(cc3[C@@H](OC3OC5CO[C@@H](c6cccs6)OC5C(O)C3O)[C@H]3COC(=O)[C@H]23)OCO4)cc(OC)c1O` (stereo not given in full)?
T/C (endpoint: mean survival time, dose: 0.5 mg/kg/injection, schedule: Q03HX024 (ip), vehicle: other): 109 % of control; T/C (endpoint: mean survival time, dose: 1.0 mg/kg/injection, schedule: Q01DX009 (ip), vehicle: other): 111 % of control; T/C (endpoint: mean survival time, dose: 1.0 mg/kg/injection, schedule: Q03HX008 (ip), vehicle: other): 122 % of control; T/C (endpoint: mean survival time, dose: 1.0 mg/kg/injection, schedule: Q03HX016 (ip), vehicle: other): 111 % of control; T/C (endpoint: mean survival time, dose: 1.0 mg/kg/injection, schedule: Q03HX024 (ip), vehicle: other): 118 % of control; T/C (endpoint: mean survival time, dose: 2.0 mg/kg/injection, schedule: Q01DX009 (oral), vehicle: other): 104 % of control; T/C (endpoint: mean survival time, dose: 2.0 mg/kg/injection, schedule: Q03HX008 (oral), vehicle: other): 90 % of control; T/C (endpoint: mean survival time, dose: 2.0 mg/kg/injection, schedule: Q04DX003 (ip), vehicle: water): 194 % of control; T/C (endpoint: mean survival time, dose: 2.0 mg/kg/injection, schedule: Q08DX002 (ip), vehicle: water): 156 % of control; T/C (endpoint: mean survival time, dose: 4.0 mg/kg/injection, schedule: Q01DX001 (ip), vehicle: water): 157 % of control; T/C (endpoint: mean survival time, dose: 4.0 mg/kg/injection, schedule: Q01DX009 (oral), vehicle: other): 101 % of control; T/C (endpoint: mean survival time, dose: 4.0 mg/kg/injection, schedule: Q03HX008 (oral), vehicle: other): 98 % of control; T/C (endpoint: mean survival time, dose: 4.0 mg/kg/injection, schedule: Q04DX003 (ip), vehicle: other): 110 % of control; T/C (endpoint: mean survival time, dose: 4.0 mg/kg/injection, schedule: Q04DX003 (ip), vehicle: water): 241 % of control; T/C (endpoint: mean survival time, dose: 4.0 mg/kg/injection, schedule: Q08DX002 (ip), vehicle: water): 172 % of control; T/C (endpoint: mean survival time, dose: 8.0 mg/kg/injection, schedule: Q01DX001 (ip), vehicle: water): 162 % of control; T/C (endpoint: mean survival time, dose: 8.0 mg/kg/injection, schedule: Q01DX009 (oral), vehicle: other): 105 % of control; T/C (endpoint: mean survival time, dose: 8.0 mg/kg/injection, schedule: Q03HX008 (oral), vehicle: other): 100 % of control; T/C (endpoint: mean survival time, dose: 8.0 mg/kg/injection, schedule: Q03HX016 (ip), vehicle: other): 186 % of control; T/C (endpoint: mean survival time, dose: 8.0 mg/kg/injection, schedule: Q03HX016 (oral), vehicle: other): 95 % of control; T/C (endpoint: mean survival time, dose: 8.0 mg/kg/injection, schedule: Q03HX024 (oral), vehicle: other): 98 % of control; T/C (endpoint: mean survival time, dose: 8.0 mg/kg/injection, schedule: Q04DX003 (ip), vehicle: water): 426 % of control; T/C (endpoint: mean survival time, dose: 8.0 mg/kg/injection, schedule: Q04DX003 (oral), vehicle: other): 97 % of control; T/C (endpoint: mean survival time, dose: 8.0 mg/kg/injection, schedule: Q08DX002 (ip), vehicle: other): 109 % of control; T/C (endpoint: mean survival time, dose: 8.0 mg/kg/injection, schedule: Q08DX002 (ip), vehicle: water): 300 % of control; T/C (endpoint: mean survival time, dose: 16.0 mg/kg/injection, schedule: Q01DX001 (ip), vehicle: water): 439 % of control; T/C (endpoint: mean survival time, dose: 16.0 mg/kg/injection, schedule: Q01DX001 (oral), vehicle: other): 111 % of control; T/C (endpoint: mean survival time, dose: 16.0 mg/kg/injection, schedule: Q01DX009 (oral), vehicle: other): 103 % of control; T/C (endpoint: mean survival time, dose: 16.0 mg/kg/injection, schedule: Q03HX008 (oral), vehicle: other): 95 % of control; T/C (endpoint: mean survival time, dose: 16.0 mg/kg/injection, schedule: Q03HX016 (oral), vehicle: other): 94 % of control and 95 % of control; T/C (endpoint: mean survival time, dose: 16.0 mg/kg/injection, schedule: Q03HX024 (oral), vehicle: other): 93 % of control; T/C (endpoint: mean survival time, dose: 16.0 mg/kg/injection, schedule: Q04DX003 (ip), vehicle: water): 172 % of control; T/C (endpoint: mean survival time, dose: 16.0 mg/kg/injection, schedule: Q04DX003 (oral), vehicle: other): 106 % of control; T/C (endpoint: mean survival time, dose: 16.0 mg/kg/injection, schedule: Q08DX002 (ip), vehicle: other): 122 % of control; T/C (endpoint: mean survival time, dose: 16.0 mg/kg/injection, schedule: Q08DX002 (ip), vehicle: water): 423 % of control; T/C (endpoint: mean survival time, dose: 16.0 mg/kg/injection, schedule: Q08DX002 (oral), vehicle: other): 102 % of control; T/C (endpoint: mean survival time, dose: 32.0 mg/kg/injection, schedule: Q01DX001 (ip), vehicle: water): 242 % of control; T/C (endpoint: mean survival time, dose: 32.0 mg/kg/injection, schedule: Q01DX001 (oral), vehicle: other): 161 % of control; T/C (endpoint: mean survival time, dose: 32.0 mg/kg/injection, schedule: Q03HX016 (oral), vehicle: other): 98 % of control; T/C (endpoint: mean survival time, dose: 32.0 mg/kg/injection, schedule: Q03HX024 (oral), vehicle: other): 94 % of control; T/C (endpoint: mean survival time, dose: 32.0 mg/kg/injection, schedule: Q04DX003 (ip), vehicle: water): 103 % of control; T/C (endpoint: mean survival time, dose: 32.0 mg/kg/injection, schedule: Q04DX003 (oral), vehicle: other): 100 % of control; T/C (endpoint: mean survival time, dose: 32.0 mg/kg/injection, schedule: Q08DX002 (ip), vehicle: water): 163 % of control; T/C (endpoint: mean survival time, dose: 32.0 mg/kg/injection, schedule: Q08DX002 (oral), vehicle: other): 100 % of control; T/C (endpoint: mean survival time, dose: 64.0 mg/kg/injection, schedule: Q01DX001 (ip), vehicle: other): 188 % of control; T/C (endpoint: mean survival time, dose: 64.0 mg/kg/injection, schedule: Q01DX001 (oral), vehicle: other): 98 % of control; T/C (endpoint: mean survival time, dose: 64.0 mg/kg/injection, schedule: Q03HX024 (oral), vehicle: other): 92 % of control; T/C (endpoint: mean survival time, dose: 64.0 mg/kg/injection, schedule: Q04DX003 (oral), vehicle: other): 97 % of control; T/C (endpoint: mean survival time, dose: 64.0 mg/kg/injection, schedule: Q08DX002 (ip), vehicle: other): 190 % of control; T/C (endpoint: mean survival time, dose: 64.0 mg/kg/injection, schedule: Q08DX002 (oral), vehicle: other): 96 % of control; T/C (endpoint: mean survival time, dose: 128.0 mg/kg/injection, schedule: Q01DX001 (oral), vehicle: other): 101 % of control; T/C (endpoint: mean survival time, dose: 128.0 mg/kg/injection, schedule: Q03HX024 (oral), vehicle: other): 94 % of control; T/C (endpoint: mean survival time, dose: 128.0 mg/kg/injection, schedule: Q04DX003 (oral), vehicle: other): 96 % of control; T/C (endpoint: mean survival time, dose: 128.0 mg/kg/injection, schedule: Q08DX002 (oral), vehicle: other): 98 % of control; T/C (endpoint: mean survival time, dose: 600.0 mg/kg/injection, schedule: Q01DX009 (ip), vehicle: steriod suspending solution): 224 % of control; T/C (endpoint: mean survival time, dose: 800.0 mg/kg/injection, schedule: Q01DX009 (ip), vehicle: steriod suspending solution): 246 % of control; T/C (endpoint: mean survival time, dose: 1000.0 mg/kg/injection, schedule: Q01DX009 (ip), vehicle: steriod suspending solution): 169 % of control; T/C (endpoint: median survival time, dose: 1.0 mg/kg/injection, schedule: Q01DX009 (ip), vehicle: saline): 194 % of control; T/C (endpoint: median survival time, dose: 2.0 mg/kg/injection, schedule: Q01DX009 (ip), vehicle: saline): 116 % of control; T/C (endpoint: median survival time, dose: 4.0 mg/kg/injection, schedule: Q01DX009 (ip), vehicle: saline): 88 % of control

With `O=C1NN=C(c2ccccc2)CC1c1ccccc1` (stereo not given) as the compound, how does the T/C (endpoint: mean survival time, dose: 100.0 mg/kg/injection, schedule: Q01DX001 (ip), vehicle: Klucel (hydroxypropylcellulose) (HPC)) read?
Its T/C is 100 % of control.

What about the T/C (endpoint: mean survival time, dose: 100.0 mg/kg/injection, schedule: Q04DX003 (ip), vehicle: Klucel (hydroxypropylcellulose) (HPC)) of the same compound?
The T/C was 101 % of control.

And the T/C (endpoint: mean survival time, dose: 200.0 mg/kg/injection, schedule: Q01DX001 (ip), vehicle: Klucel (hydroxypropylcellulose) (HPC))?
Its T/C is 97 % of control.

What about the T/C (endpoint: mean survival time, dose: 200.0 mg/kg/injection, schedule: Q04DX003 (ip), vehicle: Klucel (hydroxypropylcellulose) (HPC)) of the same compound?
The T/C was 96 % of control.

What about the T/C (endpoint: mean survival time, dose: 400.0 mg/kg/injection, schedule: Q01DX001 (ip), vehicle: Klucel (hydroxypropylcellulose) (HPC)) of the same compound?
The T/C was 100 % of control.

And the T/C (endpoint: mean survival time, dose: 400.0 mg/kg/injection, schedule: Q04DX003 (ip), vehicle: Klucel (hydroxypropylcellulose) (HPC))?
Its T/C is 93 % of control.

Which results are given for `CCCCCCCCCCCC(=O)NC(=S)Nc1cccc(Cl)c1`?
T/C (endpoint: mean survival time, dose: 100.0 mg/kg/injection, schedule: Q01DX001 (ip), vehicle: saline with Tween-80): 93 % of control; T/C (endpoint: mean survival time, dose: 100.0 mg/kg/injection, schedule: Q01DX009 (ip), vehicle: saline with Tween-80): 107 % of control and 89 % of control; T/C (endpoint: mean survival time, dose: 100.0 mg/kg/injection, schedule: Q04DX002 (ip), vehicle: saline with Tween-80): 122 % of control and 91 % of control; T/C (endpoint: mean survival time, dose: 200.0 mg/kg/injection, schedule: Q01DX001 (ip), vehicle: saline with Tween-80): 93 % of control; T/C (endpoint: mean survival time, dose: 200.0 mg/kg/injection, schedule: Q01DX009 (ip), vehicle: saline with Tween-80): 96 % of control and 86 % of control; T/C (endpoint: mean survival time, dose: 200.0 mg/kg/injection, schedule: Q04DX002 (ip), vehicle: saline with Tween-80): 97 % of control and 119 % of control; T/C (endpoint: mean survival time, dose: 400.0 mg/kg/injection, schedule: Q01DX001 (ip), vehicle: saline with Tween-80): 90 % of control; T/C (endpoint: mean survival time, dose: 400.0 mg/kg/injection, schedule: Q04DX002 (ip), vehicle: saline with Tween-80): 105 % of control and 92 % of control

How did the T/C (endpoint: mean survival time, dose: 100.0 mg/kg/injection, schedule: Q01DX009 (ip), vehicle: saline sonified) turn out when `COc1ccc2c(c1)CCC1CC(=O)C=C21` (stereo not given) was run?
Its T/C is 113 % of control.

What about the T/C (endpoint: mean survival time, dose: 200.0 mg/kg/injection, schedule: Q01DX009 (ip), vehicle: saline sonified) of the same compound?
Its T/C is 103 % of control.

What about the T/C (endpoint: mean survival time, dose: 400.0 mg/kg/injection, schedule: Q01DX009 (ip), vehicle: saline sonified) of the same compound?
Its T/C is 104 % of control.

Which T/C (endpoint: mean survival time, dose: 100.0 mg/kg/injection, schedule: Q04DX002 (ip), vehicle: saline) does the source give for `OCC[N+]12CN3CN(CN(C3)C1)C2` here?
Its T/C is 113 % of control.

And the T/C (endpoint: mean survival time, dose: 200.0 mg/kg/injection, schedule: Q04DX002 (ip), vehicle: saline)?
Its T/C is 106 % of control.

And the T/C (endpoint: mean survival time, dose: 400.0 mg/kg/injection, schedule: Q04DX002 (ip), vehicle: saline)?
Its T/C is 106 % of control.
